Measured values from US20170210723A1, “MOLECULES HAVING PESTICIDAL UTILITY, AND INTERMEDIATES, COMPOSITIONS, AND PROCESSES, RELATED THERETO” (priority 2016, published 2017).

Key:
Type in all cases: in vivo
[1] = test system: Cabbage Looper (Trichoplusia ni); assay: Bioassays on CL, 128-well diet tray assay; details: Trichoplusia ni; for mortality at 50 µg/cm2: 168 h, 50 μg/cm^2 on artificial diet, second instar larvae, five to seven days, read-out: CL % Control (or Mortality) rating
Summary of the method: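 Test molecule at 50 μg/cm^2 applied to the artificial diet surface (acetone-water) and dried; one to five second-instar T. ni larvae per well, eight wells per treatment, held at 25° C., 14:10 light-dark for five to seven days. Percent mortality averaged over wells.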

[2] = test system: Beet Armyworm (Spodoptera exigua); assay: Bioassays on BAW, 128-well diet tray assay; details: Spodoptera exigua; for mortality at 50 µg/cm2: 168 h, 50 μg/cm^2 on artificial diet, second instar larvae, five to seven days, read-out: BAW % Control (or Mortality) rating
[3] = test system: Yellow Fever Mosquito (Aedes aegypti); assay: Bioassays on Yellow Fever Mosquito larvae, 96-well plate; details: from 4000 ppm DMSO master plate, about 1 day-old larvae, 3 days
Experimental: Master plates containing 400 μg of a molecule dissolved in 100 μL of dimethyl sulfoxide (DMSO) (equivalent to a 4000 ppm solution) are used. A master plate of assembled molecules contains 15 μL per well. To this plate, 135 μL of a 90:10 water:acetone mixture is added to each well. A robot (Biomek® NXP Laboratory Automation Workstation) is programmed to dispense 15 μL aspirations from the master plate into an empty 96-well shallow plate (“daughter” plate). There are 6 reps (“daughter” plates) created per master. The created daughter plates are then immediately infested with YFM larvae.
The day before plates are to be treated, mosquito eggs are placed in Millipore water containing liver powder to begin hatching (4 g. into 400 mL). After the daughter plates are created using the robot, they are infested with 220 μL of the liver powder/larval mosquito mixture (about 1 day-old larvae). After plates are infested with mosquito larvae, a non-evaporative lid is used to cover the plate to reduce drying. Plates are held at room temperature for 3 days prior to grading. After 3 days, each well is observed and scored based on mortality. The results are indicated in the table entitled “Table ABC: Biological Results” (See Table Section). AGRICULTURALLY ACCEPTABLE ACID ADDITION SALTS, SALT DERIVATIVES, SOLVATES, ESTER DERIVATIVES, POLYMORPHS, ISOTOPES, AND RADIONUCLIDES

Structure (SMILES)	mortality at 50 µg/cm2 [1] [%]	mortality at 0.05 µg/cm2 ([1]; 0.05 μg/cm^2, read-out: CL Percent control (or mortality)) [%]	mortality at 0.5 µg/cm2 ([1]; 0.5 μg/cm^2, read-out: CL Percent control (or mortality)) [%]	mortality at 5 µg/cm2 ([1]; 5 μg/cm^2, read-out: CL Percent control (or mortality)) [%]	mortality at 50 µg/cm2 [2] [%]	mortality at 0.05 µg/cm2 ([2]; 0.05 μg/cm^2, read-out: BAW Percent control (or mortality)) [%]	mortality at 0.5 µg/cm2 ([2]; 0.5 μg/cm^2, read-out: BAW Percent control (or mortality)) [%]	mortality at 5 µg/cm2 ([2]; 5 μg/cm^2, read-out: BAW Percent control (or mortality)) [%]	YFM % Control (or Mortality) rating [3]
Cc1cc(/C=C/C(c2cc(Cl)c(Cl)c(Cl)c2)C(F)(F)F)ccc1C(=O)N[C@H](C)CS(=O)(=O)CC(F)(F)F (stereo partly drawn) [F40, 2-Methyl-4-((E)-4,4,4-trifluoro-3-(3,4,5-trichlorophenyl)but-1-en-1-yl)-N—((R)-1-((2,2,2-trifluoroethyl)sulfonyl)propan-2-yl)benzamide]	50 to 100	100	100	100	50 to 100	60	100	100	A (80-100)
C[C@H](CSCC(F)(F)F)NC(=O)c1ccc(/C=C/C(c2cc(Br)c(Cl)c(Br)c2)C(F)(F)F)cc1C(F)(F)F (stereo partly drawn) [F41, 4-((E)-3-(3,5-Dibromo-4-chlorophenyl)-4,4,4-trifluorobut-1-en-1-yl)-N—((R)-1-((2,2,2-trifluoroethyl)thio)propan-2-yl)-2-(trifluoromethyl)benzamide]	50 to 100	–	–	–	50 to 100	–	–	–	A (80-100)
C[C@H](C[S+]([O-])CC(F)(F)F)NC(=O)c1ccc(/C=C/C(c2cc(Br)c(Cl)c(Br)c2)C(F)(F)F)cc1C(F)(F)F (stereo partly drawn) [F42, 4-((E)-3-(3,5-Dibromo-4-chlorophenyl)-4,4,4-trifluorobut-1-en-1-yl)-N-((2R)-1-((2,2,2-trifluoroethyl)sulfinyl)propan-2-yl)-2-(trifluoromethyl)benzamide]	50 to 100	–	–	–	50 to 100	–	–	–	A (80-100)
CC(C)(CSCC(F)(F)F)NC(=O)c1ccc(/C=C/C(c2cc(Cl)c(Cl)c(Cl)c2)C(F)(F)F)cc1C(F)(F)F (stereo not drawn) [F44, (E)-N-(2-methyl-1-((2,2,2-trifluoroethyl)thio)propan-2-yl)-4-(4,4,4-trifluoro-3-(3,4,5-trichlorophenyl)but-1-en-1-yl)-2-(trifluoromethyl)benzamide]	50 to 100	–	–	–	50 to 100	–	–	–	A (80-100)
C[C@H](CS(=O)(=O)NCC(F)(F)F)NC(=O)c1ccc(/C=C/C(c2cc(Cl)c(Cl)c(Cl)c2)C(F)(F)F)cc1C(F)(F)F (stereo partly drawn) [F45, 4-((E)-4,4,4-Trifluoro-3-(3,4,5-trichorophenyl)but-1-en-1-yl)-N—((R)-1-(N-(2,2,2-trifluoroethyl)sulfamoyl)propan-2-yl)-2-(trifluoromethyl)benzamide]	50 to 100	–	–	–	50 to 100	–	–	–	A (80-100)
Cc1cc(/C=C/C(c2cc(Cl)c(Cl)c(Cl)c2)C(F)(F)F)ccc1C(=O)N[C@H](C)C[S+]([O-])CC(F)(F)F (stereo partly drawn) [F46, 2-Methyl-4-((E)-4,4,4-trifluoro-3-(3,4,5-trichlorophenyl)but-1-en-1-yl)-N-((2R)-1-((2,2,2-trifluoroethyl)sulfinyl)propan-2-yl)benzamide]	50 to 100	–	–	–	50 to 100	–	–	–	A (80-100)
CC(C)(CS(=O)(=O)CC(F)(F)F)NC(=O)c1ccc(/C=C/C(c2cc(Cl)c(Cl)c(Cl)c2)C(F)(F)F)cc1C(F)(F)F (stereo not drawn) [F48, (E)-N-(2-Methyl-1-((2,2,2-trifluoroethyl)sulfonyl)propan-2-yl)-4-(4,4,4-trifluoro-3-(3,4,5-trichlorophenyl)but-1-en-1-yl)-2-(trifluoromethyl)benzamide]	50 to 100	–	–	–	50 to 100	–	–	–	A (80-100)
C[C@H](C[S+]([O-])CC(F)(F)F)NC(=O)c1ccc(/C=C/C(c2cc(Cl)c(Cl)c(Cl)c2)C(F)(F)F)cc1Cl (stereo partly drawn) [F50, 2-Chloro-4-((E)-4,4,4-trifluoro-3-(3,4,5-trichlorophenyl)but-1-en-1-yl)-N-((2R)-1-((2,2,2-trifluoroethyl)sulfinyl)propan-2-yl)benzamide]	50 to 100	–	–	–	50 to 100	–	–	–	A (80-100)
Cc1cc(/C=C/C(c2cc(Cl)c(Cl)c(Cl)c2)C(F)(F)F)ccc1C(=O)N[C@H](C)CSCC(F)(F)F (stereo partly drawn) [F51, 2-Methyl-4-((E)-4,4,4-trifluoro-3-(3,4,5-trichlorophenyl)but-1-en-1-yl)-N—((R)-1-((2,2,2-trifluoroethyl)thio)propan-2-yl)benzamide]	50 to 100	–	–	–	50 to 100	–	–	–	A (80-100)
C[C@H](CS(=O)(=O)CC(F)(F)F)NC(=O)c1ccc(/C=C/C(c2cc(Cl)c(F)c(Cl)c2)C(F)(F)F)cc1Br (stereo partly drawn) [F52, 2-Bromo-4-((E)-3-(3,5-dichloro-4-fluorophenyl)-4,4,4-trifluorobut-1-en-1-yl)-N—((R)-1-((2,2,2-trifluoroethyl)sulfonyl)propan-2-yl)benzamide]	50 to 100	–	–	–	50 to 100	–	–	–	A (80-100)
C[C@H](C[S+]([O-])CC(F)(F)F)NC(=O)c1ccc(/C=C/C(c2cc(Cl)c(C#N)c(Cl)c2)C(F)(F)F)cc1C(F)(F)F (stereo partly drawn) [F53, 4-((E)-3-(3,5-Dichloro-4-cyanophenyl)-4,4,4-trifluorobut-1-en-1-yl)-N-((2R)-1-((2,2,2-trifluoroethyl)sulfinyl)propan-2-yl)-2-(trifluoromethyl)benzamide]	50 to 100	–	–	–	50 to 100	–	–	–	A (80-100)
CCc1cc(/C=C/C(c2cc(Cl)c(Cl)c(Cl)c2)C(F)(F)F)ccc1C(=O)N[C@H](C)CSCC(F)(F)F (stereo partly drawn) [F54, 2-Ethyl-4-((E)-4,4,4-trifluoro-3-(3,4,5-trichlorophenyl)but-1-en-1-yl)-N—((R)-1-((2,2,2-trifluoroethyl)thio)propan-2-yl)benzamide]	50 to 100	–	–	–	50 to 100	–	–	–	A (80-100)
Cc1cc(/C=C/C(c2cc(Br)cc(Br)c2)C(F)(F)F)ccc1C(=O)N[C@H](C)CSCC(F)(F)F (stereo partly drawn) [F57, 4-((E)-3-(3,5-Dibromophenyl)-4,4,4-trifluorobut-1-en-1-yl)-2-methyl-N—((R)-1-((2,2,2-trifluoroethyl)thio)propan-2-yl)benzamide]	50 to 100	–	–	–	50 to 100	–	–	–	A (80-100)
C[C@H](C[S+]([O-])CC(F)(F)F)NC(=O)c1ccc(/C=C/C(c2cc(Br)cc(Br)c2)C(F)(F)F)cc1C(F)(F)F (stereo partly drawn) [F60, 4-((E)-3-(3,5-Dibromophenyl)-4,4,4-trifluorobut-1-en-1-yl)-N-((2R)-1-((2,2,2-trifluoroethyl)sulfinyl)propan-2-yl)-2-(trifluoromethyl)benzamide]	50 to 100	–	–	–	50 to 100	–	–	–	A (80-100)
C[C@H](CS(=O)(=O)CC(F)(F)F)NC(=O)c1ccc(/C=C/C(c2cc(Br)cc(Br)c2)C(F)(F)F)cc1C(F)(F)F (stereo partly drawn) [F61, 4-((E)-3-(3,5-Dibromophenyl)-4,4,4-trifluorobut-1-en-1-yl)-N—((R)-1-((2,2,2-trifluoroethyl)sulfonyl)propan-2-yl)-2-(trifluoromethyl)benzamide]	50 to 100	–	–	–	50 to 100	–	–	–	A (80-100)
CCSC[C@@H](C)NC(=O)c1ccc(/C=C/C(c2cc(Cl)c(Cl)c(Cl)c2)C(F)(F)F)cc1C(F)(F)F (stereo partly drawn) [F62, N—((R)-1-(Ethylthio)propan-2-yl)-4-((E)-4,4,4-trifluoro-3-(3,4,5-trichlorophenyl)but-1-en-1-yl)-2-(trifluoromethyl)benzamide]	50 to 100	–	–	–	50 to 100	–	–	–	A (80-100)
O=C(NC1(C[S+]([O-])CC(F)(F)F)CC1)c1ccc(/C=C/C(c2cc(Cl)c(Cl)c(Cl)c2)C(F)(F)F)cc1C(F)(F)F (stereo not drawn) [F63, (E)-4-(4,4,4-Trifluoro-3-(3,4,5-trichlorophenyl)but-1-en-1-yl)-N-(1-(((2,2,2-trifluoroethyl)sulfinyl)methyl)cyclopropyl)-2-(trifluoromethyl)benzamide]	50 to 100	–	–	–	50 to 100	–	–	–	A (80-100)
C[C@H](CSCC(F)(F)F)NC(=O)c1ccc(/C=C/C(c2cc(Br)cc(Br)c2)C(F)(F)F)cc1Cl (stereo partly drawn) [F64, 2-Chloro-4-((E)-3-(3,5-dibromophenyl)-4,4,4-trifluorobut-1-en-1-yl)-N—((R)-1-((2,2,2-trifluoroethyl)thio)propan-2-yl)benzamide]	50 to 100	–	–	–	50 to 100	–	–	–	A (80-100)
